US9738634B2, “Heterocyclic amide compound and herbicide” (SYNGENTA PARTICIPATIONS AG, priority 2013, dated 2017)

Columns and labels:
Format in all cases: in vivo
[1] = system: barnyard grass; experiment: Test Example 1: weedkilling efficacy, preemergent weed treatment in the submerged state; A: barnyard grass
Procedure, shortened: (§1)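 Emulsion diluted with water to the specified per-hectare dosage is applied onto flood water (4 cm) over alluvial soil on the sowing day, with barnyard grass, bulrush and pondweed seeded and rice (2.5-leaf) transplanted; plants grow at 25–30 °C and are rated at 3 weeks.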

[2] = system: bulrush; experiment: Test Example 1: weedkilling efficacy, preemergent weed treatment in the submerged state; B: bulrush
Procedure, shortened: as §1

[3] = system: oval-leafed pondweed; experiment: Test Example 1: weedkilling efficacy, preemergent weed treatment in the submerged state; C: oval-leafed pondweed
Procedure, shortened: as §1

[4] = system: transplanted rice; experiment: Test Example 1: preemergent weed treatment in the submerged state, effect on crop; a: transplanted rice
Procedure, shortened: as §1

[5] = system: barnyard grass; experiment: Test Example 2: weedkilling efficacy, growth period weed treatment in the submerged state; A: barnyard grass
Procedure, shortened: (§2)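 First, alluvial soil in pots is flooded to 4 cm and mixed seed is sown. Next, plants grow in a greenhouse at 25 to 30° C until the 1-2 leaf stage. Then diluted emulsion is applied onto the water surface at the given g/ha rate, and injury is assessed after 3 weeks.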

[6] = system: bulrush; experiment: Test Example 2: weedkilling efficacy, growth period weed treatment in the submerged state; B: bulrush
Procedure, shortened: as §2

[7] = system: oval-leafed pondweed; experiment: Test Example 2: weedkilling efficacy, growth period weed treatment in the submerged state; C: oval-leafed pondweed
Procedure, shortened: as §2

Structure (SMILES)	A: barnyard grass, weed kill grade ([1]; treatment dosage 252 g/ha)	B: bulrush, weed kill grade ([2]; treatment dosage 252 g/ha)	C: oval-leafed pondweed, weed kill grade ([3]; treatment dosage 252 g/ha)	a: transplanted rice, effect on crop grade ([4]; treatment dosage 252 g/ha)	A (barnyard grass) weedkilling efficacy grade ([5]; treatment dosage 252 g/ha)	B (bulrush) weedkilling efficacy grade ([6]; treatment dosage 252 g/ha)	C (oval-leafed pondweed) weedkilling efficacy grade ([7]; treatment dosage 252 g/ha)	A: barnyard grass, weed kill grade ([1]; treatment dosage 320 g/ha)	B: bulrush, weed kill grade ([2]; treatment dosage 320 g/ha)	C: oval-leafed pondweed, weed kill grade ([3]; treatment dosage 320 g/ha)	a: transplanted rice, effect on crop grade ([4]; treatment dosage 320 g/ha)	A (barnyard grass) weedkilling efficacy grade ([5]; treatment dosage 320 g/ha)	B (bulrush) weedkilling efficacy grade ([6]; treatment dosage 320 g/ha)	C (oval-leafed pondweed) weedkilling efficacy grade ([7]; treatment dosage 320 g/ha)
CC(C)(C(=O)Nc1ccnc(Br)c1)N1COCN(c2ccccc2)C1=O [A-4-03]	5 (weed kill ratio 90% or more, (practically complete withering))	5 (weed kill ratio 90% or more, (practically complete withering))	5 (weed kill ratio 90% or more, (practically complete withering))	1 (weed kill ratio 5% or more, less than 20%)	2 (weed kill ratio 20% or more, less than 40%)	5 (weed kill ratio 90% or more, (practically complete withering))	4 (weed kill ratio 70% or more, less than 90%)							
CC(C)(C(=O)Nc1cc(F)nc(F)c1)N1COCN(c2ccccc2)C1=O [A-4-04]								5 (weed kill ratio 90% or more, (practically complete withering))	5 (weed kill ratio 90% or more, (practically complete withering))	5 (weed kill ratio 90% or more, (practically complete withering))	0 (weed kill ratio 5% or less (practically no effect))	3 (weed kill ratio 40% or more, less than 70%)	5 (weed kill ratio 90% or more, (practically complete withering))	4 (weed kill ratio 70% or more, less than 90%)
CC(C)(C(=O)Nc1ccnc(C(F)(F)F)c1)N1COCN(c2ccccc2)C1=O [A-4-06]	5 (weed kill ratio 90% or more, (practically complete withering))	5 (weed kill ratio 90% or more, (practically complete withering))	5 (weed kill ratio 90% or more, (practically complete withering))	0 (weed kill ratio 5% or less (practically no effect))	4 (weed kill ratio 70% or more, less than 90%)	5 (weed kill ratio 90% or more, (practically complete withering))	4 (weed kill ratio 70% or more, less than 90%)							
CC(C)(C(=O)Nc1cc(-c2ccsc2)ccn1)N1COCN(c2ccccc2)C1=O [A-5-01]								4 (weed kill ratio 70% or more, less than 90%)	5 (weed kill ratio 90% or more, (practically complete withering))	5 (weed kill ratio 90% or more, (practically complete withering))	0 (weed kill ratio 5% or less (practically no effect))	4 (weed kill ratio 70% or more, less than 90%)	4 (weed kill ratio 70% or more, less than 90%)	4 (weed kill ratio 70% or more, less than 90%)
CC(C)(C(=O)Nc1cc(Cl)cc(Cl)n1)N1COCN(c2c(F)cccc2F)C1=O [A-6-01]	5 (weed kill ratio 90% or more, (practically complete withering))	5 (weed kill ratio 90% or more, (practically complete withering))	5 (weed kill ratio 90% or more, (practically complete withering))	3 (weed kill ratio 40% or more, less than 70%)	5 (weed kill ratio 90% or more, (practically complete withering))	5 (weed kill ratio 90% or more, (practically complete withering))	5 (weed kill ratio 90% or more, (practically complete withering))							
CC(C)(C(=O)Nc1cc(Cl)cc(Br)n1)N1COCN(c2c(F)cccc2F)C1=O [A-6-02]	5 (weed kill ratio 90% or more, (practically complete withering))	5 (weed kill ratio 90% or more, (practically complete withering))	5 (weed kill ratio 90% or more, (practically complete withering))	0 (weed kill ratio 5% or less (practically no effect))	5 (weed kill ratio 90% or more, (practically complete withering))	5 (weed kill ratio 90% or more, (practically complete withering))	5 (weed kill ratio 90% or more, (practically complete withering))							
